This note sets out measurements from US6060608A, “Analogs of CC-1065 and the duocarmycins” (The Scripps Research Institute, priority 1999, dated 2000).

A short description of data set [1]: Solvolysis regioselectivity (acid-catalyzed nucleophilic addition to the cyclopropane). Format: physicochemical. The following applies: C9 addition versus ring expansion. The source says:
Solvolysis: Reactivity. Two fundamental characteristics of the alkylation subunits have proven important in the studies to date. The first is the stereoelectronically-controlled acid-catalyzed ring-opening of the cyclopropane which dictates preferential addition of a nucleophile to the least substituted cyclopropane carbon. With the CBI series of modified alkylation subunits where this stereoelectronic alignment of the C8b-C9 bond is nearly optimized, exclusive (≥20:1) addition to the C9 center with cleavage of the C8b-C9 bond is observed. […] Thus, the impact of the difluorocyclopropane substitution on the reactivity and reaction regioselectivity of CBI was examined.
Solvolysis: Regioselectivity. Treatment of both 217 and 219 with catalytic CF3 SO3 H (0.1 equiv) in CH3 OH (0° C.) rapidly and cleanly provided a single characterizable product 225 (30 min, 90%) or 226 (10 min, 79%), FIG. 33. […] Furthermore, the ^1 H-^13 C HMBC NMR spectrum of 226 established the carbon-carbon connectivity of C1 (δ51.0) with the CF2 carbon (δ50.3, t) and C9b (δ125.0). No connectivity between the key CF2 carbon (δ50.3, t) and […] was detected as required of the ring expansion regioisomer. This was unambiguously established by conducting the solvolysis in THF-H2 O catalyzed by CF3 SO3 H (0.12 equiv) which cleanly provided 227 (18 h, 85%), FIG. 33. […]

The test system of another data set is w794 duplex DNA. Description: DNA alkylation selectivity and efficiency within w794 DNA, thermally-induced strand cleavage and PAGE. Format: biochemical, SV40. The gist of the method:
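5′-32P end-labeled w794 duplex DNA in TE buffer (pH 7.2–7.5) incubated with agent in DMSO across concentrations, 4–37 °C for 24–76 h depending on agent. Unbound agent removed by EtOH precipitation; thermolysis 100 °C, 30 min cleaves alkylation sites, mapped by denaturing 8% PAGE beside Sanger standards and autoradiography.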

Another data set relates to L1210. Description: In vitro cytotoxic activity, L1210. The settings on record: N-BOC derivatives.
[2] abbreviates: natural enantiomers, 37° C., 72 h.

With `CC(C)(C)OC(=O)N1CC2CC23C1=CC(=O)c1ccc(C#N)cc13` (stereo not shown) [compound 25, N-(tert-Butyloxycarbonyl)-7-cyano-1,2,9,9a-tetrahydrocyclopropa[c]benz[e]indol-4-one], in data set [1], the “solvolysis regioselectivity, addition to the least substituted or C9 cyclopropane carbon” value was “nucleophilic addition to the least substituted carbon of the activated cyclopropane was observed exclusively”. In the data set with w794 duplex DNA, the “DNA alkylation sequence selectivity” value is reported as 5'-AA>5'-TA. Moreover, the “concentration providing detectable DNA alkylation” value with w794 duplex DNA (both enantiomers, 37° C., 24-72 h) is given as 10^-2 to 10^-3 M. In the data set with w794 duplex DNA (setting [2]), the “concentration at which DNA alkylation is detectable” value is given as 10^-3 M and the “concentration at which DNA alkylation is prominent” value was 10^-2 M. Moreover, the “DNA alkylation less efficient than 34-39” value with w794 duplex DNA (two enantiomers of 25) is recorded as 10^4 ×. For the same compound, in the data set with L1210, the “relative cytotoxic potency of natural versus unnatural enantiomers” value stood at 4 ×.
